Source: patent US20240067651A1 (Biohaven Therapeutics Ltd., priority 2019, published 2024)

Experiments:
[1] = Caco-2 Permeability Assay; type: in vitro ADME, human; conditions: human
Summary of the method: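 Caco-2 monolayers cultured 21 days (TEER >600 […]); test article at 10 μM in HBSS/HEPES pH 7.4 transport medium, dosed apical or basolateral, ±Pgp inhibitor. Incubated 90 min at 37 °C; both compartments quantified by LC-MS/MS. Papp (A→B, B→A), efflux ratio and % recovery calculated.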

[2] = Stability in Simulated Gastric Fluid (SGF); type: in vitro ADME; parameters: key: % parent compound remaining relative to 0-minute sample
Summary of the method: (§1)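 Compound at 2 μg/mL final was incubated at 37° C with orbital shaking in SGF containing pepsin (pH 1.2) or SIF containing pancreatin (pH 6.8), sampled from 0 to 60 minutes. Parent remaining was measured by LC-MS/MS relative to the 0-minute sample; half-life came from ln(% remaining) versus time when enough points existed.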

[3] = Stability in Simulated Intestinal Fluid (SIF); type: in vitro ADME; parameters: key: % parent compound remaining relative to 0-minute sample
Summary of the method: as §1

Plasma Stability = type: in vitro ADME, human
Summary of the method: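 Compounds incubated at 1 μM in fresh human plasma for 1 hour at 37° C, then protein-precipitated with acetonitrile/formic acid containing internal standard. Remaining parent measured by LC-MS/MS in triplicate, expressed as percent of control remaining.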

[4] = Caco-2, pH 7.4, donor 10 μM, 90 minutes, 37° C., direction not given
[5] = % remaining at 1 h, SGF with pepsin pH 1.2, 2 μg/mL, 37° C.
[6] = % remaining at 1 h, SIF with pancreatin pH 6.8, 2 μg/mL, 37° C.
[7] = % remaining at 1 h, human plasma, 1 μM, 37° C.

Row | SMILES | Papp at 90 min, 10 µM [1, 4] [×10⁻⁶ cm/s] | SGF [2, 5] [%] | SIF [3, 6] [%] | human Plasma stability (Plasma Stability; [7]) [%] | Papp at 90 min, 10 µM ([1]; Caco-2, pH 7.4, Caco-2 monolayer) [×10⁻⁶ cm/s] | SGF ([2]; % remaining at 1 h in simulated gastric fluid) [% remaining] | SIF ([3]; % remaining at 1 h in simulated intestinal fluid) [% remaining] | human Plasma stability (Plasma Stability; % remaining at 1 h in human plasma) [% remaining]
1 | CC(C)OCCn1c(=S)[nH]c(=O)c2c1ccn2C(C)OC(=O)N(CC(F)(F)F)CC(F)(F)F (stereo not drawn) [Example 112, 1-{4-oxo-1-[2-(propan-2-yloxy)ethyl]-2-sulfanylidene-1H,2H,3H,4H,5H-pyrrolo[3,2-d]pyrimidin-5-yl}ethyl N,N-bis(2,2,2-trifluoroethyl)carbamate] | 21.1 | 100 | 100 | 99 |  |  |  | 
2 | CC(C)OCCn1c(=S)[nH]c(=O)c2c1ccn2C(C)OC(=O)N(C)CC(=O)OC(C)(C)C (stereo not drawn) [Example 113, tert-butyl 2-{methyl [(1-{4-oxo-1-[2-(propan-2-yloxy)ethyl]-2-sulfanylidene-1H, 2H,3H,4H,5H-pyrrolo[3,2-d]pyrimidin-5-yl}ethoxy)carbonyl]amino}acetate] | 7.86 | 44 | 96 | 99 |  |  |  | 
3 | COC(=O)[C@H](CCCCNC(=O)[C@@H](N)C(C)C)NC(=O)OCn1ccc2c1c(=O)[nH]c(=S)n2CCOC(C)C.O=C(O)C(F)(F)F [Example 114, trifluoroacetic acid methyl (2S)-6-[(2S)-2-amino-3-methylbutanamido]-2-{[{{4-oxo-1-[2-(propan-2-yloxy)ethyl]-2-sulfanylidene-1H,2H,3H,4H,5H-pyrrolo[3,2-d]pyrimidin-5-yl}methoxy)carbonyl]amino}hexanoate] | 0.102 | 98 | 89 | 93 |  |  |  | 
4 | CC(C)OCCn1c(=S)[nH]c(=O)c2c1ccn2C(C)OC(=O)c1ccccc1 (stereo not drawn) [Example 115, 1-{4-oxo-1-[2-(propan-2-yloxy)ethyl]-2-sulfanylidene-1H,2H,3H,4H,5H-pyrrolo[3,2-d]pyrimidin-5-yl}ethyl benzoate] | 8.05 | 63 | 67 | 59 |  |  |  | 
5 | CC(C)OCCn1c(=S)[nH]c(=O)c2c1ccn2COC(=O)c1ccccc1 [Example 116, {4-oxo-1-[2-(propan-2-yloxy)ethyl]-2-sulfanylidene-1H, 2H,3H,4H,5H-pyrrolo[3,2-d]pyrimidin-5-yl}methylbenzoate] | 6.41 | 99 | 46 | 1 |  |  |  | 
6 | CC(C)OCCn1c(=S)n(COC(=O)c2ccccc2)c(=O)c2c1ccn2COC(=O)c1ccccc1 [Example 117, {3-[(benzoyloxy)methyl]-4-oxo-1-[2-(propan-2-yloxy)ethyl]-2-sulfanylidene-1H,2H,3H,4H,5H-pyrrolo[3,2-d]pyrimidin-5-yl}methylbenzoate] | 5.76 | 100 | 79 | 20 |  |  |  | 

More lines, now with the values ahead:

Row | Papp at 90 min, 10 µM [1, 4] [×10⁻⁶ cm/s] | SGF [2, 5] [%] | SIF [3, 6] [%] | human Plasma stability (Plasma Stability; [7]) [%] | Papp at 90 min, 10 µM ([1]; Caco-2, pH 7.4, Caco-2 monolayer) [×10⁻⁶ cm/s] | SGF ([2]; % remaining at 1 h in simulated gastric fluid) [% remaining] | SIF ([3]; % remaining at 1 h in simulated intestinal fluid) [% remaining] | human Plasma stability (Plasma Stability; % remaining at 1 h in human plasma) [% remaining] | SMILES
7 | 6.6 | 94 | 76 | 73 |  |  |  |  | CC(C)OCCn1c(=S)n2c(=O)c3c1ccn3COC(=O)C(C)(C)CCCCC(C)(C)C(=O)OC2 [Example 118, 5,5,10,10-Tetramethyl-16-[2-(propan-2-yloxy)ethyl]-15-sulfanylidene-3,12-dioxa-1,14,16-triazatricyclo[12.5.2.0^{17,20}]henicosa-17(20),18-diene-4,11,21-trione]
8 | 31.7 | 94 | 98 | 90 |  |  |  |  | CC(C)OCCn1c2nc(=O)c3c1ccn3COC(=O)C(C)(C)CCCCC(C)(C)C(=O)OCS2 [Example 119, 8,8,13,13-Tetramethyl-22-[2-(propan-2-yloxy)ethyl]-6,15-dioxa-17-thia-4,19,22-triazatricyclo[16.3.1.0^{4,21}]docosa-1(21),2,18-triene-7,14,20-trione]
9 |  |  |  |  | 14.9 | 83 | 64 | 30 | CC(C)OCCn1c(=S)[nH]c(=O)c2c1ccn2COC(=O)OCCOCCNC(=O)OC(C)(C)C [Example 120]
